{"source": "patent US20240058315A1", "about": "“Pyridine and Pyrazine derivative for the Treatment of CF, COPD, and Bronchiectasis” (NOVARTIS AG, priority 2019, published 2024)", "key": {"OAT1/3": {"test_system": "OAT1/3", "assay": "in vitro inhibition of OAT1/3", "assay_type": "in vitro ADME"}, "ΔF508-CFTR": {"molecular_target": "ΔF508-CFTR (Homo sapiens (Human), UniProt P13569, DEL508-508)", "sequence (P13569 other isoform, or with tags, fused parts or gaps del F508-F508)": "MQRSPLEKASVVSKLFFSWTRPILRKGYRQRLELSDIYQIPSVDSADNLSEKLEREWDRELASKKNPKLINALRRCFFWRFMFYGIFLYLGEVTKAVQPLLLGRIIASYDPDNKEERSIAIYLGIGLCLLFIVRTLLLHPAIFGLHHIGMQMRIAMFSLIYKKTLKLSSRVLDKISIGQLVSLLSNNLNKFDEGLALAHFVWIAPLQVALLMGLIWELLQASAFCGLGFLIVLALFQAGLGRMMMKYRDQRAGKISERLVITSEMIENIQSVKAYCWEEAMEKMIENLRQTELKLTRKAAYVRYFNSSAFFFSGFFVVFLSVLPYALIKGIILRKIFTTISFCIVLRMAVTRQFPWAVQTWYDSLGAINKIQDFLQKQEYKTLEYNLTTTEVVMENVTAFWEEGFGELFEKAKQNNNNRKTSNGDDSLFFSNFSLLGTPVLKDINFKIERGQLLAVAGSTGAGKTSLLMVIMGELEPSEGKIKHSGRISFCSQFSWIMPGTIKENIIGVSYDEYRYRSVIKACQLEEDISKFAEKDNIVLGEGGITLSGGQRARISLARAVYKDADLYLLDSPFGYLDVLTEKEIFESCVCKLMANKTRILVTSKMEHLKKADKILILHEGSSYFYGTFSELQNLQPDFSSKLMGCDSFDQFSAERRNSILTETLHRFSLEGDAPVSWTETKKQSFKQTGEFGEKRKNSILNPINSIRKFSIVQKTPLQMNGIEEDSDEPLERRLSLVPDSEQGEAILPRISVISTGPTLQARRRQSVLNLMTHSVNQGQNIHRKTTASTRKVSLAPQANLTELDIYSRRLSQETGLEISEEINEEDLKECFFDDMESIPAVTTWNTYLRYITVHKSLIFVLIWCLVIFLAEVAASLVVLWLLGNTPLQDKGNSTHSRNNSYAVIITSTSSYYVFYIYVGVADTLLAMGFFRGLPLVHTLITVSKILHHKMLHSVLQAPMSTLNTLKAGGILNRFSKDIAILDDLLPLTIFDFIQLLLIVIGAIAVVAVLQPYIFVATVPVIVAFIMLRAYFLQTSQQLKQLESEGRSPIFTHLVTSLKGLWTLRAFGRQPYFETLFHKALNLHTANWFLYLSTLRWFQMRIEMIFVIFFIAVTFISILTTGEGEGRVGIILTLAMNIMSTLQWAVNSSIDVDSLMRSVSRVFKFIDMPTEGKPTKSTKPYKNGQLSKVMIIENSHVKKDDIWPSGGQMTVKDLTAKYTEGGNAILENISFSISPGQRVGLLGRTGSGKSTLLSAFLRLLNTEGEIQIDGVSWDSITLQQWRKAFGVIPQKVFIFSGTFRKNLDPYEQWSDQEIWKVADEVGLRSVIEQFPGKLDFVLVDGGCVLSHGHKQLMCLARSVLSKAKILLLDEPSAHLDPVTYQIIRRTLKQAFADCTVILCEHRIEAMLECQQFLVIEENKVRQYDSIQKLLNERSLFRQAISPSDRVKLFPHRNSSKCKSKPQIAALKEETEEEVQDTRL", "assay": "CFTR potentiator assays (membrane potential, IonWorks Quattro, Ussing chamber ion transport)", "assay_type": "cell-based", "conditions": "CFTR EC50 in 'the data measurements described above'; which of the potentiator assays is not stated", "text": "CFTR activity can be quantified by measuring the transmembrane potential. The means for measuring the transmembrane potential in a biological system can employ a number of methods including electrophysiological and optical fluorescence-based membrane potential assays.\nThe optical membrane potential assay utilises a negatively charged potentiometric dye, such as the FLIPR membrane potential dye (FMP) (see Baxter D F, Kirk M, Garcia A F, Raimondi A, Holmqvist M H, Flint K K, Bojanic D, Distefano P S, Curtis R, Xie Y. ‘A novel membrane potential-sensitive fluorescent dye improves cell-based assays for ion channels.’ J Biomol Screen. 2002 February; 7(1):79-85) which when extracellular is bound to a quenching agent.\nUpon cellular depolarisation the negatively charged dye redistributes to the intracellular compartment, unbinding from the membrane impermeant quench agent, yielding an increase in fluorescence. This change in fluorescence is proportional to the change in transmembrane potential which can result from the activity of CFTR. The changes in fluorescence can be monitored in real time by an appropriately equipped fluorescence detector such as the FLIPR (fluorometric imaging plate reader) in 96 or 384-well microtitre plates.\nChinese hamster ovary (CHO) cells stably expressing the AF508-CFTR channel were used for membrane potential experiments. Cells were maintained at 37° C. in 5% v/v CO2 at 100% humidity in Modified Eagles medium (MEM) supplemented with 8% v/v foetal calf serum, 100 μg/ml methotrexate and 100 U/ml penicillin/streptomycin. Cells were grown in 225 cm^2 tissue culture flasks. For membrane potential assays cells were seeded into 96 well plates at 40,000 cells per well, allowed to adhere and then maintained at 26° C. for 48 h to facilitate channel insertion.\nThe membrane potential screening assay utilised a low chloride ion containing extracellular solution (˜5 mM) combined with a double addition protocol. The first addition was of buffer with or without test compound followed 5 minutes later by an addition of forskolin (1-20 μM)—this protocol favours maximum chloride efflux in response to ΔF508-CFTR activation. The ΔF508-CFTR mediated chloride ion efflux leads to a membrane depolarisation which is optically monitored by the FMP dye.\nLow chloride extracellular (mM): 120 Na-gluconate, 1.2 CaCl2), 3.3 KH2PO4, 0.8 K2HPO4, 1.2 MgCl2, 10.0 D-glucose, 20.0 HEPES, pH 7.4 with NaOH FMP dye: made up as per manufacturers' instructions in low chloride extracellular solution detailed above, at 10× final concentration, and stored as 1 mL aliquots at −20° C.\nCFTR activity can also be quantified electrophysiologically using the whole-cell configuration of the patch clamp technique (Hamill et al Pflugers Archive 1981). This assay directly measures the currents associated with chloride flow through CFTR channels whilst either maintaining or adjusting the transmembrane voltage. This assay can use either single glass micropipettes or parallel planar arrays to measure CFTR activity from native or recombinant cell systems. Currents measured using parallel planar arrays can be quantified using an appropriately equipped instrument such as the IonWorks Quattro (Molecular Devices) or the Qpatch (Sophion). The Quattro system can measure CFTR currents from either a single cell per recording well (HT configuration) or alternatively from a population of 64 cells per well (Population Patch Clamp PPC) (Finkel A, Wittel A, Yang N, Handran S, Hughes J, Costantin J. ‘Population patch clamp improves data consistency and success rates in the measurement of ionic currents.’ J Biomol Screen. 2006 August; 11(5):488-96).\nChinese hamster ovary (CHO) cells stably expressing the ΔF508-CFTR channel were used for IonWorks Quattro experiments. […]"}}, "data": [{"compound": "COc1nc(C(=O)NC[C@](C)(O)C(F)(F)F)c(N)cc1C(F)(F)F", "note": "(single isomer, unassigned) [Example 5]", "values": [{"measurement": "inhibition of OAT1/3", "setting": "OAT1/3", "value": "Weak in vitro inhibition"}, {"measurement": "EC50", "setting": "ΔF508-CFTR", "value": 50, "unit": "nM"}]}]}
